Experiments:
Assay type in all cases: biochemical
GSK3β (h) = GSK3β (h) (Homo sapiens, UniProt P49841); assay: Kinase inhibition assay (33P-ATP, P30 filter, scintillation counting): GSK3β; details: 30µM Testsubstanz (100 µM ATP); read-out: Hemmung von Kinasen in % GSK3β (h)
Experimental: (§1) Alle Kinasen werden auf zehnfache Arbeitskonzentration vor Anwendung in dem Essay verdünnt. Die Zusammensetzung des Verdünnungspuffers ist für jede Kinase in der nachfolgenden Tabelle angegeben.
(§2) Alle Substrate werden gelöst und auf eine Stammlösung in entsalztem Wasser verdünnt.
GSK3β (h)(5-10mU) in einem Endreaktionsvolumen von 25 µl wird mit 8 mM MOPS pH 7.0, 0.2 mM EDTA, 20 µM […](p) EDEEE (phospho GS2 Peptid), 10 mM MgAcetat und [γ-^33P-ATP] inkubiert (spezifische Aktivität etwa 500 cpm/pmol, Konzentration wie erforderlich). Die Reaktion wird durch Zugabe von Mg^2+[γ-^33P-ATP] initiiert. Nach 40-minütiger Inkubation bei Raumtemperatur wird die Reaktion durch Zugabe von 5 µl einer 3 %igen Phosphorsäurelösung gestoppt. 10 µl der Reaktion werden dann auf ein P30-Filter gegeben und dreimal jeweils 5 Minuten in 50 mM Phosphorsäure und einmal in Methanol gewaschen. Anschließend wird getrocknet und eine Szintillationszählung durchgeführt.

ROCKII (h) = assay: Kinase inhibition assay (33P-ATP, P30 filter, scintillation counting): ROCK-II; details: 30µM Testsubstanz (100 µM ATP); 40 min
SAPK2a (h) = SAPK2a (h) (Homo sapiens, UniProt Q16539); assay: Kinase inhibition assay (33P-ATP, P30 filter, scintillation counting): SAPK2a; details: 30µM Testsubstanz (100 µM ATP); read-out: Hemmung von Kinasen in % SAPK2a (h)
Experimental: as §1, §2
SAPK2a (h) wird in einem Endreaktionsvolumen von 25 µl mit 25 mM Tris pH 7,5, 0.02 mM EGTA, 0.33 mg/ml Myelin-Basisprotein, 10 mM MgAcetat und [γ-^33P-ATP] inkubiert (spezifische Aktivität etwa 50 cpm/pmol, Konzentration wie erforderlich). Die Reaktion wird durch Zugabe von Mg^2+[γ-^33P-ATP] initiiert. Nach 40-minütiger Inkubation bei Raumtemperatur wird die Reaktion durch Zugabe von 5 µl einer 3 %igen Phosphorsäurelösung gestoppt. 10 µl der Reaktion werden dann auf ein P30-Filter gegeben und dreimal jeweils 5 Minuten in 50 mM Phosphorsäure und einmal in Methanol gewaschen. Anschließend wird getrocknet und eine Szintillationszählung durchgeführt.

c-RAF (h) = c-RAF (h) (Homo sapiens, UniProt P04049); assay: Kinase inhibition assay (33P-ATP, P30 filter, scintillation counting): c-RAF; details: 40 min; 30µM Testsubstanz (100 µM ATP); read-out: Hemmung von Kinasen in % c-RAF (h)
Experimental: as §1, §2
(§3) c-RAF (ha)(5-10 mU) in einem Endreaktionsvolumen von 25 µl wird mit 25 mM Tris pH 7.5,.0.02 mM EGTA, 0.66 mg/ml Myelin-Basisprotein, 10 mM MgAcetat und [γ-^33P-ATP] inkubiert (spezifische Aktivität etwa 50 cpm/pmol, Konzentration wie erforderlich). Die Reaktion wird durch Zugabe von Mg^2+[γ-^33P-ATP] initiiert. Nach 40-minütiger Inkubation bei Raumtemperatur wird die Reaktion durch Zugabe von 5 µl einer 3 %igen Phosphorsäurelösung gestoppt. 10 µl der Reaktion werden dann auf ein P30-Filter gegeben und dreimal jeweils 5 Minuten in 50 mM Phosphorsäure und einmal in Methanol gewaschen. Anschließend wird getrocknet und eine Szintillationszählung durchgeführt.

PKB (h) = PKB (h) (Homo sapiens, UniProt P31749); assay: Kinase inhibition assay (33P-ATP, P30 filter, scintillation counting): PKB; details: 40 min; 30µM Testsubstanz (100 µM ATP); read-out: Hemmung von Kinasen in % PKB (h)
Experimental: as §1, §2
PKBα (h)(5-10mU) wird in einem Endreaktionsvolumen von 25 µl mit 8 mM MOPS pH 7.0, 0.2 mM EDTRA, 30 µM GRPRTSSFAEGKK, 10 mM MgAcetat und [γ-^33P-ATP] inkubiert (spezifische Aktivität etwa 50 cpm/pmol, Konzentration wie erforderlich). Die Reaktion wird durch Zugabe von Mg^2+[γ-^33P-ATP] initiiert. Nach 40-minütiger Inkubation bei Raumtemperatur wird die Reaktion durch Zugabe von 5 µl einer 3 %igen Phosphorsäurelösung gestoppt. 10 µl der Reaktion werden dann auf ein P30-Filter gegeben und dreimal jeweils 5 Minuten in 50 mM Phosphorsäure und einmal in Methanol gewaschen. Anschließend wird getrocknet und eine Szintillationszählung durchgeführt.

Lck (h) = Lck (h) (Homo sapiens, UniProt P06239); assay: Kinase inhibition assay (33P-ATP, P30 filter, scintillation counting): Lck; details: 30µM Testsubstanz (100 µM ATP); read-out: Hemmung von Kinasen in % Lck (h)
Experimental: as §1, §2
as §3, with “Lck (h)(5-10 mU)” for “c-RAF (ha)(5-10 mU)”, “mit 50” for “mit 25”, “pH 7.5, 0.1” for “pH 7.5,.0.02”, “EGTA, 0.1 mM NaVanadate, 250 µM KVEKIGEGTYGVVYK (Cdc2 Peptid),” for “EGTA, 0.66 mg/ml Myelin-Basisprotein,”, “etwa 500” for “etwa 50”

JNK3 (r) = JNK3 (r) (Rattus norvegicus, UniProt P49187); assay: Kinase inhibition assay: JNK3; details: 30µM Testsubstanz (100 µM ATP); read-out: Hemmung von Kinasen in % JNK3 (r)
Text: as §1, §2

PKA (h) = assay: Kinase inhibition assay (33P-ATP, P30 filter, scintillation counting): PKA; details: 30µM Testsubstanz (100 µM ATP); 40 min
MEK1 (h) = MEK1 (h) (Homo sapiens, UniProt Q02750); assay: Kinase inhibition assay: MEK1 (coupled to MAPK2 assay); details: 30µM Testsubstanz (100 µM ATP); read-out: Hemmung von Kinasen in % MEK1 (h)
Experimental: as §1, §2
MEK1 (h)(1-5 mU) in einem Endreaktionsvolumen von 25 µl wird mit 50 mM Tris pH 7.5, 0.2 mM EGTA, 0.1 % b-Mercaptoethanol, 0,01 % Brij-35, 1 µM inaktives MAPK2 (m), 10 mM MgAcetat und kaltem ATP inkubiert (Konzentration wie erforderlich). Die Reaktion wird durch Zugabe von MgATB initiiert. Nach 40-minütiger Inkubation bei Raumtemperatur werden […] dieses Inkubationsgemisches dazu verwendet, den oben beschriebenen MAPK2-Assay zu initiieren.

MAPK1 (h) = MAPK1 (h) (Homo sapiens, UniProt P27361); assay: Kinase inhibition assay: MAPK1; details: 30µM Testsubstanz (100 µM ATP); read-out: Hemmung von Kinasen in % MAPK1 (h)
Text: as §1, §2

MAPK2 (h) = MAPK2 (h) (Homo sapiens, UniProt P28482); assay: Kinase inhibition assay: MAPK2; details: 30µM Testsubstanz (100 µM ATP); read-out: Hemmung von Kinasen in % MAPK2 (h)
Text: as §1, §2

Sequence of GSK3β (h) (P49841 whole entry): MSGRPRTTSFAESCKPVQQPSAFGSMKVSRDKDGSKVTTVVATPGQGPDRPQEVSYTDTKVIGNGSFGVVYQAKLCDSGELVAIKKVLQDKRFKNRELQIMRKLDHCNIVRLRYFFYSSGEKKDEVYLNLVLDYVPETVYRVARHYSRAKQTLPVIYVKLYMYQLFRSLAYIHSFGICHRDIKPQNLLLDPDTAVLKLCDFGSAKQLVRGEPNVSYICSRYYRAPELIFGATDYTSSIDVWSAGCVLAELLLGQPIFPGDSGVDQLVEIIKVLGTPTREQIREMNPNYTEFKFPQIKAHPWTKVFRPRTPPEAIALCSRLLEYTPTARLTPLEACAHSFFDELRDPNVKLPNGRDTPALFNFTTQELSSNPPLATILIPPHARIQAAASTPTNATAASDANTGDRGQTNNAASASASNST
Sequence of MAPK2 (h) (P28482 whole entry): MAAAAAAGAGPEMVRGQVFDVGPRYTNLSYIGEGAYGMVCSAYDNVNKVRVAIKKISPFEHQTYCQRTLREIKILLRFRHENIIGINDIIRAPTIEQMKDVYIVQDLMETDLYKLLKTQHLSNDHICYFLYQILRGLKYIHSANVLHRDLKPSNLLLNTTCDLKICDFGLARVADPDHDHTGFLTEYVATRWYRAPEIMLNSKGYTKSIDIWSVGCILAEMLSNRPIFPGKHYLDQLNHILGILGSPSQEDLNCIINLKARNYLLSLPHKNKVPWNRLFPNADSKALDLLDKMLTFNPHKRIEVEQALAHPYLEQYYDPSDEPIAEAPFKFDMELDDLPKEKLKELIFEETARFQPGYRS
Sequence of MAPK1 (h) (P27361 whole entry): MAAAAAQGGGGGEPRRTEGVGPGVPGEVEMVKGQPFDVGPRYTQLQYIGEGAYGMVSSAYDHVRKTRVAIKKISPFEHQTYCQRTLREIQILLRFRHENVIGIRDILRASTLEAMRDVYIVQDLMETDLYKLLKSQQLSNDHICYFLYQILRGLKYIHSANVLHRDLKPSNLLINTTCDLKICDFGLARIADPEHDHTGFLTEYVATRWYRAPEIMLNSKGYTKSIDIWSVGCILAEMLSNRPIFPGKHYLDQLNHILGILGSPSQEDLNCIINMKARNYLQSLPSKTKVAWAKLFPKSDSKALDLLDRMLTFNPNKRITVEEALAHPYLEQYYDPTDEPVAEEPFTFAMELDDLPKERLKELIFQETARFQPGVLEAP
Sequence of Lck (h) (P06239 whole entry): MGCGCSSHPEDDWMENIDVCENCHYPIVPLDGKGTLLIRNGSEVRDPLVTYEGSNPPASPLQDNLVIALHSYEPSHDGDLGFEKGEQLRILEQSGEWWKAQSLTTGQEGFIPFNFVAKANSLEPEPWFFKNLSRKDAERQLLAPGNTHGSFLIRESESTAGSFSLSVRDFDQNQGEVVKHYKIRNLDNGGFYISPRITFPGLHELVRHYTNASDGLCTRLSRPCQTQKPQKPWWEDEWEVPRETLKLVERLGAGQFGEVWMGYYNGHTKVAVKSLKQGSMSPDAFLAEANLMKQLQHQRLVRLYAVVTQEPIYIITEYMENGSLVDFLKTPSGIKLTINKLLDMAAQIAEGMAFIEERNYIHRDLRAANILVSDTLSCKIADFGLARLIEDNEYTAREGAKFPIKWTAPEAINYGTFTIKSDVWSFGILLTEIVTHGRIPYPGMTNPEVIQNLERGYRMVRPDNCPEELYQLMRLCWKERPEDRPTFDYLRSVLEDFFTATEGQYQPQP
Sequence of SAPK2a (h) (Q16539 whole entry): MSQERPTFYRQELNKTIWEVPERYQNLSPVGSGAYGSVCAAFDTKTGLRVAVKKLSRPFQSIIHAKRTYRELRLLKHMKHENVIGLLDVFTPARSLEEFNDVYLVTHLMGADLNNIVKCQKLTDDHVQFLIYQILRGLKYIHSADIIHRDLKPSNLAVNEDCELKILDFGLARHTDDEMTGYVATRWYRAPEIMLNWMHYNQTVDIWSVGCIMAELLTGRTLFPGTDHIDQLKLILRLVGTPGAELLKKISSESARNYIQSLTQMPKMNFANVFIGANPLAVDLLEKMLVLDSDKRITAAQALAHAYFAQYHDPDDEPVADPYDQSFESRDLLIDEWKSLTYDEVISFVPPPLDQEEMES
Sequence of MEK1 (h) (Q02750 whole entry): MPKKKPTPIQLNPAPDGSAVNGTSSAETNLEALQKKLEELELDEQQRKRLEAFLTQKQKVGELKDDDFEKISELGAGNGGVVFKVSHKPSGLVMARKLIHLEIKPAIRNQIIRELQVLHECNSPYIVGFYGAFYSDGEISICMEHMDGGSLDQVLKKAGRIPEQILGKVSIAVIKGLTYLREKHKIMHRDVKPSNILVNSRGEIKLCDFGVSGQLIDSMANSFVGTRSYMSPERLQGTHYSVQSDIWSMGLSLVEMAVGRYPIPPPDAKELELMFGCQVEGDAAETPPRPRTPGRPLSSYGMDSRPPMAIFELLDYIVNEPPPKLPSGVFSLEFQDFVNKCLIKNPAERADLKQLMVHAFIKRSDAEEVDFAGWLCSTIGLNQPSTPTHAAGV
Sequence of JNK3 (r) (P49187 whole entry): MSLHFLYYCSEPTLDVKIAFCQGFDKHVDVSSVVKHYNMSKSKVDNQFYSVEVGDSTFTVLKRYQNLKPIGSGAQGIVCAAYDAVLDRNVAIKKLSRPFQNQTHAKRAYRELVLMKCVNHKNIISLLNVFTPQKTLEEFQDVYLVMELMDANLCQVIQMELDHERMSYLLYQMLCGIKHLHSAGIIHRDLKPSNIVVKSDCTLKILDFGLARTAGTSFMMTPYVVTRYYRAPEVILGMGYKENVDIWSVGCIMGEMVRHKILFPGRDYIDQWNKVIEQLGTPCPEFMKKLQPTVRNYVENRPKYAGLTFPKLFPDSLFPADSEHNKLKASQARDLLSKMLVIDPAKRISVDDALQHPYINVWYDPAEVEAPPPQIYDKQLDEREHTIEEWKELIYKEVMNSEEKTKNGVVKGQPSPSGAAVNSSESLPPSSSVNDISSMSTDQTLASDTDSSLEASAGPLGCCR
Sequence of PKB (h) (P31749 whole entry): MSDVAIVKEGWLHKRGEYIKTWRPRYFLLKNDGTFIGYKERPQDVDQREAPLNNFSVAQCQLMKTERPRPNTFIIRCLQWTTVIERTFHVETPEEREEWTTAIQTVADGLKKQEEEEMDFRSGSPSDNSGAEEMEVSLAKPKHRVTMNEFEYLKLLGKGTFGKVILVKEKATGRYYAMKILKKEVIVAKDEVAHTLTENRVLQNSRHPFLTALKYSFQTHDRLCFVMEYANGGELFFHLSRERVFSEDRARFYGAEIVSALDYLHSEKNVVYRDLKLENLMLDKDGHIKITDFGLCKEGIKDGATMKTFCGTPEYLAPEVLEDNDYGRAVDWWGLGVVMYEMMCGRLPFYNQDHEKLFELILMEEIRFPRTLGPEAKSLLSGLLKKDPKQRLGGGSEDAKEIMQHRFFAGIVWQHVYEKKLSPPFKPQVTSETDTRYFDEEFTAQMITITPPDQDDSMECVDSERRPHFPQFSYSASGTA
Sequence of c-RAF (h) (P04049 whole entry): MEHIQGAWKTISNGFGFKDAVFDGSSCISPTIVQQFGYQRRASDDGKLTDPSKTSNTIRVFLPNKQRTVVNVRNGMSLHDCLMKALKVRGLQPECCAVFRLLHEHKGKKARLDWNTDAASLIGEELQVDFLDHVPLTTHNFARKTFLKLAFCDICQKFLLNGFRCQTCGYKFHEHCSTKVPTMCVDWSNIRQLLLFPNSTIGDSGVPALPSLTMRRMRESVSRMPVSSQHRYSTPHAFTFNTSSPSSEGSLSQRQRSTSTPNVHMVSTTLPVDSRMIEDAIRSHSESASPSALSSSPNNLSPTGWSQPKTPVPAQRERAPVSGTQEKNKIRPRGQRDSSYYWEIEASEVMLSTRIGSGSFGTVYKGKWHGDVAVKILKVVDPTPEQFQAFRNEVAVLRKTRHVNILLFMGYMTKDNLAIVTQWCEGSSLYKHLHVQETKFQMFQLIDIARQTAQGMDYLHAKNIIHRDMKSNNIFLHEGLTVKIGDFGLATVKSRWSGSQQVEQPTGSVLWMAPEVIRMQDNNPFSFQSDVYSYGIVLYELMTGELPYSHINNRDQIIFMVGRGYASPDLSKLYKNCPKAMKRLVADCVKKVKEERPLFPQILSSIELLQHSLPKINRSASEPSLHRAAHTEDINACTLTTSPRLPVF

| Compound | inhibition at 30 µM (GSK3β (h)) | Hemmung von Kinasen in % ROCKII (h) (ROCKII (h)) | inhibition at 30 µM (SAPK2a (h)) | inhibition at 30 µM (c-RAF (h)) | inhibition at 30 µM (PKB (h)) | inhibition at 30 µM (Lck (h)) | inhibition at 30 µM (JNK3 (r)) | Hemmung von Kinasen in % PKA (h) (PKA (h)) | inhibition at 30 µM (MEK1 (h)) | inhibition at 30 µM (MAPK1 (h)) | inhibition at 30 µM (MAPK2 (h)) |
| --- | --- | --- | --- | --- | --- | --- | --- | --- | --- | --- | --- |
| Cn1c(-c2ccccc2)nc2c(-c3ccc(F)cc3)ncnc21 [Verbd. 41, 6-(4-Fluoro-phenyl)-9-methyl-8-phenyl-9H-purin] | 26% | 0% | 23% | 24% | 31% | 17% | 12% | 0% | 5% | 20% | 1% |
| Nc1ncnc2ncn(Cc3ccc(F)cc3)c12 [Verbd. 43, 7-(4-Fluoro-benzyl)-7H-purin-6-ylamin] | 0% | 6% | 8% | 28% | 0% | 0% | 25% | 7% | 8% | 26% | 5% |
| Cn1cnc2c(Nc3ccccc3)ncnc21 [Verbd. 13, (9-Methyl-9H-purin-6-yl)-phenyl-amin] | 26% | 0% | 0% | 44% | 0% | 18% | 5% | 0% | 4% | 16% | 42% |
| Fc1ccc(Sc2ncnc3c2ncn3Cc2ccccc2)cc1 [Verbd. 75, 9-Benzyl-6-(4-fluoro-phenylsulfanyl)-9H-purin] | 0% | 5% | 64% | 0% | 1% | 16% | 0% | 0% | 4% | 0% | 0% |
| c1ccc(Cn2cnc3c(Sc4ccccc4)ncnc32)cc1 [Verbd. 74, 9-Benzyl-6-phenylsulfanyl-9H-purin] | 1% | 1% | 64% | 0% | 1% | 0% | 0% | 0% | 6% | 0% | 0% |
| C(=Cc1ncnc2[nH]cnc12)c1ccccc1 [Verbd. 72, 6-Styryl-9H-purin] | 20% | 22% | 17% | 66% | 7% | 37% | 2% | 4% | 7% | 50% | 20% |
| Cn1cnc2c(Nc3ccc(F)cc3)ncnc21 [Verbd. 14, (4-Fluoro-phenyl)-(9-methyl-9H-purin-6-yl)-amin] | 14% | 7% | 13% | 27% | 0% | 9% | 19% | 0% | 8% | 36% | 57% |
| Cn1c(-c2ccc([S+](C)[O-])cc2)nc2c(Sc3ccc(F)cc3)ncnc21 (stereo not drawn) [Verbd. 60, 6-(4-Fluoro-phenylsulfanyl)-8-(4-methan-sulfinyl-phenyl)-9-methyl-9H-purin] | 4% | 0% | 44% | 4% | 10% | 30% | 10% | 4% | 1% | 0% | 0% |
| Fc1ccc(Cn2cnc3c(Sc4ccc(F)cc4)ncnc32)cc1 [Verbd. 77, 9-(4-Fluoro-benzyl)-6-(4-fluoro-phenylsulfanyl)-9H-purin] | 8% | 0% | 27% | 0% | 0% | 16% | 0% | 0% | 3% | 6% | 0% |
| c1ccc(Sc2ncnc3[nH]cnc23)cc1 [Verbd. 15, 6-Phenylsulfanyl-9H-purin] | 1% | 33% | 54% | 6% | 0% | 5% | 0% | 8% | 0% | 3% | 13% |
| Fc1ccc(Sc2ncnc3[nH]ccc23)cc1 [Verbd. 53, 4-(4-Fluoro-phenylsulfanyl)-7H-pyrrolo[2,3-d]pyrimidin] | 4% | 42% | 79% | 43% | 0% | 52% | 5% | 0% | 36% | 10% | 2% |
| Fc1ccc(Cn2cnc3c(Sc4ccccc4)ncnc32)cc1 [Verbd. 76, 9-(4-Fluoro-benzyl)-6-phenylsulfanyl-9H-purin] | 0% | 2% | 67% | 0% | 13% | 12% | 0% | 0% | 1% | 17% | 0% |

Reference: patent EP1444982A1, “The use of purine derivatives as selective kinase inhibitors” (MERCKLE GMBH, priority 2003, dated 2004)
